Assay results as given in US9718773B2, “Substituted 5 membered heterocyclic compounds and preparation thereof” (Council of Scientific and Industrial Research, priority 2014, dated 2017).
Where two headings read alike, the source gives them in different places.

Key:
[1] = test system: Mycobacterium smegmatis MC^2155 strain; test: Anti-mycobacterial growth inhibition assay (turbidometry, 96 well plate); assay type: cell-based; details: Mycolicibacterium smegmatis
Procedure: Anti-Mycobacterial Activity Assay:
Anti-mycobacterial activity of the synthesized compounds was performed with Mycobacterium smegmatis MC^2155 strain by performing a growth inhibition assay by agar dilution followed turbidometry method. The assay was semi-throughput and conducted in a 96 well plate (sterile). Isolated single colonies of M. smegmatis MC^2 155 (ATCC 14468) grown on 7H10 agar plate were grown overnight in Middlebrook 7H9 medium (0.47% Middlebrook 7H9 broth base, 10% ADS, 0.2% glycerol, and 0.1% Tween-80) to mid exponential phase at 37° C. When the OD of this culture reached approximately 0.8, a secondary culture was inoculated in 5 ml Middlebrook 7H9 medium. The secondary culture was incubated overnight and allowed to grow at 37° C. to early log phase (OD600≈0.3). For the anti-mycobacterial assay, 98 μl of 1:1000-folds dilution of secondary culture was dispensed into 96-well microtiter plate per well along with 2 μl of test compound in triplicate. 240 μl of sterile water were added to each well of the peripheral rows of 96-well plate to minimize media evaporation during assay incubation. The final concentration of the test compound in each well was 30 μM. Bacterial growth was assessed after 32 hours of incubation by measuring turbidity at 600 nm OD600 values using TECAN Infinite 200 PRO™ (Tecan Instruments, Switzerland). Depending upon the percentage of growth, the percentage of inhibition was calculated at the standard concentration of 30 μM. Isoniazid and Rifampicin were included in every assay plate as positive controls of growth inhibition using stock solutions of INH (10 mg/mL, HiMedia) and Rifampicin (10 mg/mL, HiMedia) to achieve the final concentration of 16 μg/mL for INH and 2 μg/mL for Rifampicin. Additional controls, DMSO (solvent without compound) and medium without inoculums, were included in all the assay plates avoiding intra assay variability. The results were analyzed as the percentage of growth inhibition.

[2] = ATCC14468|MC^2155, test compound 30 μM, bacterial growth after 32 hours by OD600, M. smegmatis MC^2 155 (ATCC 14468), read-out: % Inhibition

melting point [°C]	SMILES	other results
197 to 200	Cc1ccc(S(=O)(=O)N2C[C@H]([C@@H](NC(=O)OC(C)(C)C)c3ccccc3)[C@H](O)C2)cc1 [Ia, tert-butyl ((R)-((3R,4S)-4-hydroxy-1-tosylpyrrolidin-3-yl)(phenyl)methyl)carbamate]	
203 to 205	Cc1ccc(S(=O)(=O)N2C[C@H]([C@@H](NC(=O)OC(C)(C)C)c3ccc(Cl)cc3)[C@H](O)C2)cc1 [Ib, tert-butyl ((R)-(4-chlorophenyl)((3R,4S)-4-hydroxy-1-tosylpyrrolidin-3-yl)methyl)carbamate]	
202 to 204	Cc1ccc(S(=O)(=O)N2C[C@H]([C@@H](NC(=O)OC(C)(C)C)c3ccc(C(F)(F)F)cc3)[C@H](O)C2)cc1 [Ic, tert-butyl ((R)-((3R,4S)-4-hydroxy-1-tosylpyrrolidin-3-yl)(4-(trifluoromethyl)phenyl)methyl)carbamate]	
209 to 211	CSc1ccc([C@H](NC(=O)OC(C)(C)C)[C@H]2CN(S(=O)(=O)c3ccc(C)cc3)C[C@H]2O)cc1 [Ii, tert-Butyl ((R)-((3R, 4S)-4-hydroxy-1-tosylpyrrolidin-3-yl)(4-(methylthio)phenyl)methyl)carbamate]	
187 to 190	Cc1ccc([C@H](NC(=O)OC(C)(C)C)[C@H]2CN(S(=O)(=O)c3ccc(C)cc3)C[C@H]2O)cc1 [Id, tert-butyl ((R)-((3R,4S)-4-hydroxy-1-tosylpyrrolidin-3-yl)(p-tolyl)methyl)carbamate]	
210 to 213	Cc1ccc(S(=O)(=O)N2C[C@H]3[C@@H](C2)OC(=O)N[C@H]3c2ccc(Br)cc2)cc1 [If, (4R, 4aR, 7aS)-4-(4-Bromophenyl)-6-tosylhexahydropyrrolo [3,4-e][1,3]oxazin-2(3H)-one]	
177 to 178	CCOC(=O)C[C@@H]1[C@@H](C(NC(=O)OC(C)(C)C)c2ccc(C)cc2)CN(S(=O)(=O)c2ccc(C)cc2)[C@@H]1C(=O)OCC (stereo partly shown)	
186 to 189	Cc1ccc(S(=O)(=O)N2C[C@H]([C@@H](NC(=O)OC(C)(C)C)c3cccs3)[C@H](O)C2)cc1 [Ij, tert-Butyl ((R)-((3R, 4S)-4-hydroxy-1-tosylpyrrolidin-3-yl)(thiophen-2-yl)methyl) carbamate]	
153 to 156	Cc1ccc(S(=O)(=O)N2C[C@H]3[C@@H](C2)OC(=O)N[C@H]3c2ccc3ccccc3c2)cc1 [Ie, (4R,4aR,7aS)-4-(naphthalen-2-yl)-6-tosylhexahydropyrrolo[3,4-e][1,3]oxazin-2(3H)-one]	

Further lines, the molecule ahead of its results:

SMILES	melting point [°C]	other results
CCOC(=O)C[C@@H]1[C@@H](C(NC(=O)OC(C)(C)C)c2ccc(Br)cc2)CN(S(=O)(=O)c2ccc(C)cc2)[C@@H]1C(=O)OCC (stereo partly shown) [IF]		inhibition at 30 µM ([1]; ATCC14468|MC^2155, 32 h): 10.8%
CCOC(=O)C[C@@H]1[C@@H](C(NC(=O)OC(C)(C)C)c2ccc(C(F)(F)F)cc2)CN(S(=O)(=O)c2ccc(C)cc2)[C@@H]1C(=O)OCC (stereo partly shown)	169 to 170	
CCOC(=O)C[C@@H]1[C@@H](C(NC(=O)OC(C)(C)C)c2ccccc2)CN(S(=O)(=O)c2ccc(C)cc2)[C@@H]1C(=O)OCC (stereo partly shown) [IA]		inhibition at 30 µM ([1]; ATCC14468|MC^2155, 32 h): 13.5%
CCOC(=O)C[C@@H]1[C@@H](C(NC(=O)OC(C)(C)C)c2ccc(F)cc2)CN(S(=O)(=O)c2ccc(C)cc2)[C@@H]1C(=O)OCC (stereo partly shown)	148 to 150	
CCOC(=O)C[C@@H]1[C@@H](C(NC(=O)OC(C)(C)C)c2ccc(Br)cc2)CN(S(=O)(=O)c2ccc(C)cc2)[C@@H]1C(=O)OCC (stereo partly shown)	161 to 163	
Cc1ccc(S(=O)(=O)N2C[C@H]3[C@@H](C2)OC(=O)N[C@H]3c2ccc(F)cc2)cc1	207 to 211	
CCOC(=O)C[C@H]1CN(C(=O)OC(C)C)N(C(=O)OC(C)C)[C@@H]1Cc1cc2c(cc1[N+](=O)[O-])OCO2 [2i, Diisopropyl(3R,4S)-4-(2-ethoxy-2-oxoethyl)-3-((6-nitrobenzo[d][1,3]dioxol-5-yl)methyl)pyrazolidine-1,2-dicarboxylate]		inhibition at 30 µM [1, 2]: 29.3%
CCOC(=O)C[C@@H]1[C@@H](C(NC(=O)OC(C)(C)C)c2ccc(Cl)cc2)CN(S(=O)(=O)c2ccc(C)cc2)[C@@H]1C(=O)OCC (stereo partly shown)	155 to 156	
CCOC(=O)C[C@@H]1[C@@H](C(NC(=O)OC(C)(C)C)c2ccc(C(F)(F)F)cc2)CN(S(=O)(=O)c2ccc(C)cc2)[C@@H]1C(=O)OCC (stereo partly shown) [IC]		inhibition at 30 µM ([1]; ATCC14468|MC^2155, 32 h): 0.493%
Cc1ccc(S(=O)(=O)N2C[C@H]([C@@H](NC(=O)OC(C)(C)C)c3ccco3)[C@H](O)C2)cc1	136 to 139	
CCOC(=O)C[C@@H]1[C@@H]([C@@H](NC(=O)OC(C)(C)C)c2ccc(F)cc2)CN(S(=O)(=O)c2ccc(C)cc2)[C@@H]1C(=O)OCC [IG, ethyl (2S,3R,4R)-4-((R)-((tert-butoxycarbonyl)amino)(4-fluorophenyl)methyl)-3-(2ethoxy-2-oxoethyl)-1-tosylpyrrolidine-2-carboxylate]		inhibition at 30 µM ([1]; ATCC14468|MC^2155, 32 h): 18.2%
CCOC(=O)C[C@@H]1[C@@H](C(NC(=O)OC(C)(C)C)c2ccccc2)CN(S(=O)(=O)c2ccc(C)cc2)[C@@H]1C(=O)OCC (stereo partly shown)	150 to 151	
CCOC(=O)C[C@@H]1[C@@H](C(NC(=O)OC(C)(C)C)c2ccc3ccccc3c2)CN(S(=O)(=O)c2ccc(C)cc2)[C@@H]1C(=O)OCC (stereo partly shown)	160 to 161	
CCOC(=O)C[C@H]1CN(C(=O)OC(C)C)N(C(=O)OC(C)C)[C@@H]1Cc1ccc(OC)cc1 [2e, Diisopropyl (3R,4S)-4-(2-ethoxy-2-oxoethyl)-3-(4-methoxybenzyl)pyrazolidine-1,2-dicarboxylate]		inhibition at 30 µM [1, 2]: 14%
CCOC(=O)C[C@H]1CN(C(=O)OC(C)C)N(C(=O)OC(C)C)[C@@H]1Cc1ccc(SC)cc1 [2g, Diisopropyl (3R,4S)-4-(2-ethoxy-2-oxoethyl)-3-(4-(methylthio)benzyl)pyrazolidine-1,2-dicarboxylate]		inhibition at 30 µM [1, 2]: 24.9%
CCOC(=O)C[C@@H]1[C@@H](C(NC(=O)OC(C)(C)C)c2ccc3ccccc3c2)CN(S(=O)(=O)c2ccc(C)cc2)[C@@H]1C(=O)OCC (stereo partly shown) [IE]		inhibition at 30 µM ([1]; ATCC14468|MC^2155, 32 h): 20.7%
